# Measurements as given in ChEMBL document CHEMBL1201862, “PubChem BioAssay data set” (2004).
# Calls of active or inactive are those of the source.
# How the values were obtained:
# [1] = growth suppression of beta-catenin-knockout colon cells, dose response, cell-based, HCT116, human colon tumor (AID 1045); assay type: functional;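 also: HCT116 colon tumor cells with beta catenin knocked out; cells exposed to compound for 60 hours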
# BJ = assay: cytotoxicity toward BJ-TERT-LT-ST fibroblasts, dose response, cell-based, RAS-independent, luminescence (AID 1935); assay type: functional; conditions: Homo sapiens;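 also: BJ fibroblasts immortalized with TERT plus LT and ST oncogenes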
# Paired box protein Pax-8 = Paired box protein Pax-8 (Homo sapiens, UniProt Q06710); assay: inhibitors of PAX8-driven TPO luciferase reporter, dose response, RMG-I cells, cherry-pick (AID 687027); assay type: functional, cell-based;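 also: luciferase reporter driven by Pax8 target thyroperoxidase promoter measured by SteadyGlo luminescence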
# [2] = target: T1, Sentrin-specific protease 7 (Homo sapiens, UniProt Q9BQF6); assay: SENP7 protease inhibitors, SAR follow-up, biochemical, luminescence, set 2 (AID 588600); assay type: functional
# T1 sequence (Q9BQF6 whole entry): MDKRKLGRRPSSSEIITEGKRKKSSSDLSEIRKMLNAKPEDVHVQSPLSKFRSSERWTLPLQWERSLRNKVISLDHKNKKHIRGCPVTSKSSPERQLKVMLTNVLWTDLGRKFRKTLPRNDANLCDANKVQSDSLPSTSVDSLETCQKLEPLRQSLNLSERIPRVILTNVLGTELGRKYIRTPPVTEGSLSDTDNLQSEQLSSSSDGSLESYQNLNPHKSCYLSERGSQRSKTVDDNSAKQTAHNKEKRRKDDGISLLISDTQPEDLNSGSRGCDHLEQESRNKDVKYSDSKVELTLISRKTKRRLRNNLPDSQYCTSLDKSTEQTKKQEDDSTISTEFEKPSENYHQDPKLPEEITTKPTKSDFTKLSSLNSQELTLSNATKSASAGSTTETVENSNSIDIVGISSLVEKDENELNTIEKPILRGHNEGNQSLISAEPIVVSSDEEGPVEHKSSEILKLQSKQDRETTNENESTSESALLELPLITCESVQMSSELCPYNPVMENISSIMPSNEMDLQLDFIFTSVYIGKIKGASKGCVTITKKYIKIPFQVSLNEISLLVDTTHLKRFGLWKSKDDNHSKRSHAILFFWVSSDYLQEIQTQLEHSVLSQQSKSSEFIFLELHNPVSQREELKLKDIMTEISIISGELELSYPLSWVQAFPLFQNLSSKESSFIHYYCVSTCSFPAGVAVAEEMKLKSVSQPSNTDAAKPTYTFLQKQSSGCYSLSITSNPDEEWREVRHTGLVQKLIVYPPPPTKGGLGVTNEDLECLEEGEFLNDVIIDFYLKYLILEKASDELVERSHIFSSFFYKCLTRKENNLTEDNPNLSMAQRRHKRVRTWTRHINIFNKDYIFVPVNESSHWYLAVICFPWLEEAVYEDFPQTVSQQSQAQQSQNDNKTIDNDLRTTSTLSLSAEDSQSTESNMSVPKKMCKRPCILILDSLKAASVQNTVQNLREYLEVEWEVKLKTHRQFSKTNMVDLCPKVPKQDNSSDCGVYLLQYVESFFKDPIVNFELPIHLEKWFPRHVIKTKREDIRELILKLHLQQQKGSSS
# [3] = target: T2, Sentrin-specific protease 6 (Homo sapiens, UniProt Q9GZR1); assay: SENP6 protease inhibitors, SAR follow-up, biochemical, luminescence, set 2 (AID 588598); assay type: functional
# T2 sequence (Q9GZR1 whole entry): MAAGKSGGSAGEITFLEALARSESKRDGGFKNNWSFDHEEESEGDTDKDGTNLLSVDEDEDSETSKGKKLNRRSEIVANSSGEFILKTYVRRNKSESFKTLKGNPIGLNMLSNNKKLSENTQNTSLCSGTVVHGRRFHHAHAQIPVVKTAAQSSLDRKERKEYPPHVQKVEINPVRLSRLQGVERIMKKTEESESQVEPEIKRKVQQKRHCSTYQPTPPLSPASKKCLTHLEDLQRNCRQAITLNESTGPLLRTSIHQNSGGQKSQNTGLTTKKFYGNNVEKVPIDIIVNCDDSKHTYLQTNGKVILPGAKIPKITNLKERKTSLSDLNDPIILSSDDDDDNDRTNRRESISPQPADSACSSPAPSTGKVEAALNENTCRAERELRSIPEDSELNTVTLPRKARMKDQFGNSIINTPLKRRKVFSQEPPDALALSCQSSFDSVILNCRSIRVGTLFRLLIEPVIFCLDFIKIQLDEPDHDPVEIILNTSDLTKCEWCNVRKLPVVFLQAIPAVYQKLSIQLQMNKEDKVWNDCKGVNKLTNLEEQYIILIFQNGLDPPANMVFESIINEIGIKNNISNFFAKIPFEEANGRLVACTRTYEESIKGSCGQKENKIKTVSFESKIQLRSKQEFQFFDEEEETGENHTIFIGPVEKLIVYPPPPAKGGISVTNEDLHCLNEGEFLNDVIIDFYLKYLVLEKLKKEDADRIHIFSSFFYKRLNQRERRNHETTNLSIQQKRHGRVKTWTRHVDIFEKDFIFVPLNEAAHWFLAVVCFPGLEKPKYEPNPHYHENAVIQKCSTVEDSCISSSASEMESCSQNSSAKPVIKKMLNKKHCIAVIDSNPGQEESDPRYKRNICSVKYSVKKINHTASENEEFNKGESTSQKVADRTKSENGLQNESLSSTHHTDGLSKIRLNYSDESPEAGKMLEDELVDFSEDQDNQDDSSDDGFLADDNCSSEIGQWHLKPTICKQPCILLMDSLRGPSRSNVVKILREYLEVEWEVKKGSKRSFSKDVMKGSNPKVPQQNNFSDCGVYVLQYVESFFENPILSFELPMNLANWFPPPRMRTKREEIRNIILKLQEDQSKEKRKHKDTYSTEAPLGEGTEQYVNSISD
# [4] = target: T1, Sentrin-specific protease 7; assay: SENP7 protease inhibitors, SAR follow-up, biochemical, luminescence (AID 504497); assay type: functional
# Genome polyprotein = Genome polyprotein (dengue virus type 2, UniProt P29990); assay: Dengue-2 NS5 methyltransferase inhibitors, primary screen, biochemical, confirmation dose response (AID 588689); assay type: functional
# [5] = target: Polyadenylate-binding protein 1 (Homo sapiens, UniProt P11940); assay: PABP1 MLLE–PAM2 binding inhibitor potency, dose response, biochemical, fluorescence polarization, FITC-PAM2 peptide (AID 602259); assay type: functional; conditions: read-out: IC50_Mean
# [6] = CAL PDZ domain peptide-binding inhibitors, dose response, biochemical, fluorescence polarization, untagged CAL PDZ, dry powder (AID 602255); assay type: functional
# Caspase-6 = target: T3, Caspase-6 (Homo sapiens, UniProt P55212); assay: human caspase-6 inhibitors, dose response, biochemical, VEID-R110 fluorescence, cherry-pick (AID 720632)
# T3 sequence (P55212 whole entry): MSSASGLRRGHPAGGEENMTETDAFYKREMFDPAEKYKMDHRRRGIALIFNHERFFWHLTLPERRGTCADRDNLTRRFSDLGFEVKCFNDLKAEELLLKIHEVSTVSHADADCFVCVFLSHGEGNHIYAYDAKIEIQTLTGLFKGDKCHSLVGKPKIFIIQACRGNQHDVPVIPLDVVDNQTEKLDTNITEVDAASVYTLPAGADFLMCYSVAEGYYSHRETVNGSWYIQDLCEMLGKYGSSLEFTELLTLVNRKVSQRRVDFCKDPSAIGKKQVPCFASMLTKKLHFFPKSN
# Polyadenylate-binding protein 1, sequence (P11940 whole entry, the tested form may be a part): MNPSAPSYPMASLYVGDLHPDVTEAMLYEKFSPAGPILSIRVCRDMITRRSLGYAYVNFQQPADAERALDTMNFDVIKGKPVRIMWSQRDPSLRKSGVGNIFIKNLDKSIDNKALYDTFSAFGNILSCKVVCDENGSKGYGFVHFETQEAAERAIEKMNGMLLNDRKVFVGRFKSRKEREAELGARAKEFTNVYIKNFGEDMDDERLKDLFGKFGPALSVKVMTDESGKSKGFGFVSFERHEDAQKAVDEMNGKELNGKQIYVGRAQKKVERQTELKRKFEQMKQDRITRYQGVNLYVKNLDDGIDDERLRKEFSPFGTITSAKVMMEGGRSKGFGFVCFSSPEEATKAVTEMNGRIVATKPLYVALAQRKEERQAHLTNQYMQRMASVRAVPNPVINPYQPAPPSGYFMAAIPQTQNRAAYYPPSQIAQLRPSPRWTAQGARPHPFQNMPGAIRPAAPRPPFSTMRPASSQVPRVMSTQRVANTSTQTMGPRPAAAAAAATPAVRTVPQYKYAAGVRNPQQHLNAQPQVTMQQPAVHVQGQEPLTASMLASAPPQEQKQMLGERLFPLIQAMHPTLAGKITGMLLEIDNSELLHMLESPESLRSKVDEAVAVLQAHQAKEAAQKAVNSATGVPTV
# Paired box protein Pax-8, sequence (Q06710 whole entry): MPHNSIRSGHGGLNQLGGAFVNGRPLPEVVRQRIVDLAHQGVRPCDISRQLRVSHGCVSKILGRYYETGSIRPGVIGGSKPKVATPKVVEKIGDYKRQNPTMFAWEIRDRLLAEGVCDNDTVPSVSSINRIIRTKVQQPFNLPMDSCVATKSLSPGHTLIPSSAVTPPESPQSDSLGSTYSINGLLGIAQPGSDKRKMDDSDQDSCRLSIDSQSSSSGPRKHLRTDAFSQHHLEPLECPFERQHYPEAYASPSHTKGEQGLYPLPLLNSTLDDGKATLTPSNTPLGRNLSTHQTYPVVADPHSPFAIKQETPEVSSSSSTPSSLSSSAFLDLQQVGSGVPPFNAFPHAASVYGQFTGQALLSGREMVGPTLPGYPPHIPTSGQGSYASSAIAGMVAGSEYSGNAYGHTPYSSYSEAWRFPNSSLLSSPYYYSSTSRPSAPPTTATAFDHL
# Genome polyprotein, sequence (P29990 2492-3391 limits assumed): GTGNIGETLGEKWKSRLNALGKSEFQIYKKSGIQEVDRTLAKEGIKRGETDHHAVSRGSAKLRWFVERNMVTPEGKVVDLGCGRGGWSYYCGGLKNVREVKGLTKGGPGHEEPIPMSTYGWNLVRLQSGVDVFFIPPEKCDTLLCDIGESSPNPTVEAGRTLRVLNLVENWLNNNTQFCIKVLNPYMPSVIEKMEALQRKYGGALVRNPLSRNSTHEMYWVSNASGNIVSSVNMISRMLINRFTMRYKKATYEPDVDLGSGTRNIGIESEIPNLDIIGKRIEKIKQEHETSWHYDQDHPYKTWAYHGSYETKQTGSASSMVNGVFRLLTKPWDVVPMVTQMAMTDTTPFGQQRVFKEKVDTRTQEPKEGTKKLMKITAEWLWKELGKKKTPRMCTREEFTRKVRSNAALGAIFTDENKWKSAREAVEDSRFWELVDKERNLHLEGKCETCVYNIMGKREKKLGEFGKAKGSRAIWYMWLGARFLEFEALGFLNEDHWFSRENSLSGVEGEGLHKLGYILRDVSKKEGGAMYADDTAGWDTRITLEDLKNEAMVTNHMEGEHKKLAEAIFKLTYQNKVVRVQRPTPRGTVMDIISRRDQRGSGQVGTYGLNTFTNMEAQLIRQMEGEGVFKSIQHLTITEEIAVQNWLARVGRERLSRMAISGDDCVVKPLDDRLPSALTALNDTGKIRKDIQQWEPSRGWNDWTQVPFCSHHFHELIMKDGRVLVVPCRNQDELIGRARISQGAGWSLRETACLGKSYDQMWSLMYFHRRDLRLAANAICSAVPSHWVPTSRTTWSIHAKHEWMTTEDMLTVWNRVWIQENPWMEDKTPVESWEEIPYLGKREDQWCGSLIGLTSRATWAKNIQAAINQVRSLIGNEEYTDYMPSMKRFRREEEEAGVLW
structure (smiles),measurement,setting,value
Cc1nn(-c2ccccc2)c(Cl)c1CN(C(=O)CCl)c1ccc(Cl)cc1,EC50,[1],4.11 µM (active)
same,EC50,BJ,3.36 µM (inconclusive)
same,AC50,Paired box protein Pax-8,3.19 µM (active)
Oc1ccccc1/C=C/c1noc(-c2ccccc2O)n1,IC50,[2],43.8 µM (active)
same,IC50,[3],62.4 µM (active)
same,IC50,[4],2.5 µM (active)
same,EC50,cells,> 67.6 µM (inactive)
O=C(O)CSc1cc(NS(=O)(=O)c2ccc(Cl)cc2)c2ccccc2c1O,IC50,Genome polyprotein,7.15 µM (active)
same,IC50,[5],> 66 µM (inactive)
same,AC50,[6],56.1 µM (active)
COc1ccccc1N1C(=O)Cc2ccccc2C1=O,AC50,Caspase-6,24.2 µM (active)
